# Reference: a melting point compilation (Tetko et al.; mined from patent text by program, amines drawn as free bases though some values may be those of a salt)
# Residues, ends and D or L forms follow the SMILES beside them. *: point of attachment. Cbz = O=C(OCc1ccccc1)*
row,SMILES,melting point
1,CCOC(=O)C(CC=Cc1ccc(Cl)cc1)S(=O)(=O)c1ccc(C)cc1 (stereo not drawn),87 to 88 °C
2,CC(C)COc1c(-c2ccc(S(N)(=O)=O)cc2)cnn(-c2ccc(F)cc2)c1=O,132 to 136 °C
3,CN(C)CC(=O)Nc1c(C(=O)c2ccccc2)[nH]c2cc(Cl)ccc12,175 to 176 °C
4,NNc1nccc(-c2ccc(OC3CCOCC3)c(Cl)c2)c1Cl,173 °C
5,C=C1C(=C)C2OC1c1cc3cccc(OC)c3cc12 (stereo not drawn),154 to 155 °C
6,Nn1c(=O)c2cc(F)c(Cl)nc2n(C2CC2)c1=O,192 to 194 °C
7,CC(C)OP(=O)(OC(C)C)C(=CC=Cc1ccccc1)P(=O)(OC(C)C)OC(C)C,103 to 104 °C
8,CN(C)C=NC(=N[N+](=O)[O-])NC1CC1,120 to 122 °C
9,COc1ccc(Oc2ccc(OCc3ccccc3)cc2[N+](=O)[O-])cc1,120 °C
10,CCN=C1NC(=O)C(OC)(c2nsc3ccc(-n4c(=O)cc(C(F)(F)F)n(C)c4=O)cc23)N1 (stereo not drawn),205 °C
11,Cc1ccc(CC2(O)CCNCC2)cc1,118 to 121 °C
12,CC(C)NC(=O)OCC(=O)c1ccc(Oc2ccccc2)cc1,89 to 90 °C
13,O=[N+]([O-])c1ccccc1CCN1CCN(c2ccccc2)CC1,76 °C
14,CCCCOC(=O)c1ccc2ccc(C(=O)NCc3ccc(O)c(O)c3)nc2c1OC(=O)C(C)(C)C,189 °C
15,CCSC(=O)n1c(=NC(=O)N(C)C)sc2ccccc21,138 °C
16,COc1cc2cc3c(Nc4ccc(Sc5nccn5C)c(Cl)c4)c(C#N)cnc3cc2cc1OCCn1nccn1,235 to 237 °C
17,O=C(O)CCCC(=O)CCCc1ccccc1CCCC(=O)O,87 °C
18,COc1cc(-c2nn(C)c(C#N)c2C)c(F)cc1Cl,155 to 156 °C
19,Cc1cc2c(s1)N(C)c1ccccc1N=C2N1CCN(C)CC1,126 to 128 °C
20,COc1ccc2ccccc2c1-c1c(C)c2c(c(C)c1P(=O)(c1ccccc1)c1ccccc1)CCC2,70.8 to 72.1 °C
21,O=c1ccc(S(=O)(=O)c2cc3c(=O)[nH]ccc3o2)n[nH]1,> 275 °C
22,COC(=O)c1ccc2c(CBr)csc2c1,108 to 110 °C
23,CN1CCc2ccccc2C1=NNC(=O)Nc1ccc(C(F)(F)F)cc1,101 to 104 °C
24,C(=Cc1ccc(N(c2ccccc2)c2ccccc2)cc1)c1ccc(N(c2ccccc2)c2ccccc2)cc1,247 to 259 °C
25,CC1(Cc2ccccc2)COc2cc(C(=O)O)ccc21 (stereo not drawn),165 °C
26,Cc1cnc2c(NC(=O)c3c(Cl)cccc3Cl)cccc2c1Cl,216 to 227 °C

row,SMILES,melting point
1,CC(=O)n1c2ccc(O)cc2c2c3c(c(-c4ccccc4Cl)cc21)C(=O)NC3=O,258 to 261 °C
2,Nc1ccc2c(c1)CC(N1CCN(CCN3CCOC3=O)CC1)c1ccccc1S2 (stereo not drawn),193 to 196 °C
3,CCOC(=O)NC(C)c1ccc(O)c(C2CCCCC2)c1 (stereo not drawn),97 to 98 °C
4,Fc1cc(N2CCNCC2)c2ncccc2c1,103 °C
5,CCOC(=O)c1nc(-c2ccc(=O)[nH]c2)c(-c2ccccc2)nc1N,230 to 238 °C
6,CCOC(=O)c1cc(-c2nn3c(c2Cl)CCCC3)c(F)cc1Cl,72 to 73 °C
7,O=C(CCNc1c(C(=O)O)[nH]c2cc(Cl)cc(Cl)c12)c1ccc(Cl)cc1,279 to 283 °C
8,CC(C)N1C(=O)NC(c2ccc3c(c2)OCCO3)c2cc3c(cc21)OCO3 (stereo not drawn),185 to 187 °C
9,N#Cc1c(-c2ccccc2)[nH]c(=O)c2cccnc12,292 to 295 °C
10,OC(COc1cccc2[nH]ncc12)CN1CCC(COc2ccccc2)CC1 (stereo not drawn),141 to 142 °C
11,CC(=O)N1CCN(C(=O)Cc2ccc(Cl)c(Cl)c2)C(CN2CCC(O)C2)C1 (stereo not drawn),133 °C
12,O=C=Nc1cc(Cl)c(Br)cc1CBr,48 to 50 °C
13,Cc1oc(COc2ccccc2/C=C/CO)nc1-c1ccccc1,128 to 129 °C
14,COC(=O)c1cc(CS(=O)(=O)c2ccccc2)cnc1C1=NC(C)(C(C)C)C(=O)N1C(=O)c1ccccc1 (stereo not drawn),162 to 166 °C
15,COC(=O)C(Oc1cc(OCc2ccsc2)ccc1C#N)c1ccccc1 (racemic),112 to 114 °C
16,CC1(C)CCC(C)(C)c2cc3sc(-c4ccc(C(=O)O)cc4)cc3cc21,291 to 292 °C
17,O=C(O)/C=C/c1ccc(/C=C/c2ccncc2)nc1,> 250 °C
18,CCn1cc(C(=O)OC)c(=O)c2cc(F)c(N3CCNCC3)cc21,179 to 181 °C
19,CC(c1ccc(-c2ccccc2)c(F)c1)c1nc(CN2CCOCC2)no1 (stereo not drawn),91.5 to 92.5 °C
20,CC(=Cc1ccccc1)C(=O)c1ccc(O)c(CC(=O)O)c1,192 °C
21,O=C(O)C12CC3(F)CC(F)(CC(F)(C3)C1)C2,198 to 199 °C
22,CN1NC(c2ccccc2Cl)=NN=C1c1ccccc1Cl,115 to 116 °C
23,Oc1ccc(-c2ccc(C(F)(F)F)cc2)cn1,178 to 182 °C
24,Cc1ccc(C)c(C2C(=O)CC(C)C2=O)c1 (stereo not drawn),138 to 140 °C
25,Cn1ncc2[nH]c3ccc(Cc4ccccc4C(N)=O)cc3c(=O)c21,272 °C
26,O=c1cc(O)cc(CBr)o1,77 to 78 °C

row,SMILES,melting point
1,Fc1ccc2c(N3CCN(CCCCn4cc5ccccc5c4)CC3)csc2c1,118 to 120 °C
2,COc1cc(N)c(Cl)cc1C(=O)NCC1CCCN1C1CCCCC1 (stereo not drawn),123 to 124 °C
3,O=C(O)c1ccc2cc(-c3ccc(OCC(O)CO)c(C45CC6CC(CC(C6)C4)C5)c3)ccc2c1 (stereo not drawn),278 °C
4,CCOC(=O)C1OC1C(=O)NC(CC(C)C)C(=O)NCCC(C)CO (stereo not drawn),92 to 95 °C
5,COC(=O)[C@H](Cc1c[nH]cn1)NC(=O)[C@H](Cc1ccccc1)NC(=O)[C@H](Cc1ccccc1)NC(=O)OCc1ccccc1 (Cbz-Phe-Phe-His-OMe),204 to 206 °C
6,CC#CCOc1ccc(S(=O)(=O)C2(C(=O)NO)CCOCC2)cc1,210 °C
7,O=C(c1ccc2nc(C3CC3)n(Cc3ccccc3Cl)c2c1)C1CNCCO1 (stereo not drawn),193 to 195 °C
8,CC(=O)n1nc(-c2nc3ccccc3o2)oc1=O,231 to 232 °C
9,CCOCCc1ccc(OCCNc2ncnc(COC)c2Cl)c(C)c1,39 to 41 °C
10,Cc1nc(-c2ccccc2)ncc1CN1CCN(c2ccc(O)cc2)CC1,201 to 202 °C
11,COc1ccnc(CCc2nc3c(C)cc(C)nc3[nH]2)c1,176 to 178 °C
12,COc1ccc(-n2cnc3cc(N)ccc32)cc1,44 to 45 °C
13,CNC(=O)C(S(=O)(=O)CCCl)S(=O)(=O)CCCl,173 to 175 °C
14,CCOc1cc(C)ccc1C1CCN(CCCCNC(=O)c2ccc(NC(=O)c3ccc(Cl)cc3)cc2)CC1,254 °C
15,CCCn1cnc2c1c1n[nH]c(=O)n1c(=O)n2CCC,217 to 218 °C
16,Cc1cccc(-c2cc(=O)c(C)c(-c3ccccc3)n2-c2ccccc2F)c1,211 to 214 °C
17,COc1cc(F)ccc1C(=O)Nc1cc(-c2c(-c3ccc(F)c(C)c3)nc3cccnn23)ccn1,251 to 252 °C
18,CC1CC(=O)NN=C1c1ccc2c(c1)CCN2 (stereo not drawn),187 to 189 °C
19,COc1cc2nc(N3CCN(c4ccc(O)nn4)CC3)nc(N)c2cc1OC,296 to 297 °C
20,O=C(Cn1c(-c2ccc3c(c2)OCO3)nc2ccccc21)c1ccccc1,186 to 189 °C
21,Cc1cc(S(=O)(=O)c2ccc(N)cc2)cc(N(C)C)n1,157 to 159 °C
22,O=C(c1ccc(Cl)cc1)c1c(N2C(=O)c3ccccc3C2=O)sc(Br)c1CBr,173 to 175 °C
23,CC1(C)CC(N)c2cc(OCc3ccccc3)ccc2O1 (stereo not drawn),86 to 88 °C
24,CCC(CC)NC1=CC(CC(C(=O)OC)C(=O)OC)(Nc2c(C)cc(C)cc2C)NC(C)=C1 (stereo not drawn),136 to 138 °C
25,CN(C)C1CCCCCCCCCCC1N(C)C(=O)c1ccc(C(F)(F)F)cc1 (stereo not drawn),69 to 70 °C
26,CCOc1ccc(CO)c(Oc2ccc(Cl)cc2Cl)n1,106 to 107 °C

row,SMILES,melting point
1,O=C(Nc1ccccc1)Nc1onc2c1CCC2,202 °C
2,O=C(c1ccccc1)c1ccc(Nc2ncnc3ccc(-n4ccnc4)cc23)cc1Cl,220 to 223 °C
3,C#Cc1cccc(-c2nccc3nc(N)nn23)c1,170 to 172 °C
4,CC(C)(C)OC(=O)CN1C(=O)C(=O)c2ccccc21,119 to 121 °C
5,Cc1c(-c2cccc(F)c2)nc2n1CCc1ccccc1C2OC1CCN(C)CC1 (stereo not drawn),132 °C
6,C=CCOc1ccc(C(=O)C#Cc2c[nH]c3ccccc23)c(O)c1,228 to 230 °C
7,CC(C)(C)OC(=O)N1CCO[C@@H](c2ccc(C(=O)O)cc2)C1,173 °C
8,COc1cn(C(C)(C)C(=O)N(C)C)nc1-c1ccccc1,114 to 116 °C
9,C=Cc1cnc([N+](=O)[O-])n1CC,45 to 47 °C
10,CCN(c1ccc(Br)cc1)c1nc(=O)c2cccnc2s1,166 to 167 °C
11,CC1(C)OC2OC(CN3C(=O)C4(COc5cc6c(cc54)OCCO6)c4ccccc43)C3OC(C)(C)OC3C2O1 (stereo not drawn),112 to 118 °C
12,COc1cc2cc(C(=O)O)[nH]c2cc1OCCCl,187 to 189 °C
13,O=C(O)c1ccc2c(=O)c3ccccc3ccc2c1,261 to 262 °C
14,Cc1cc(-c2cc(C(F)(F)F)nn2-c2ccc(S(N)(=O)=O)c(F)c2)ccc1-c1ccco1,78 to 80 °C
15,CCN(C(=O)c1ccccc1-c1ccccc1)C(C)(C)c1ccccc1,121 to 122 °C
16,Oc1ccc2cc(OCC(O)CCc3cccnc3)ccc2c1 (stereo not drawn),165 to 166 °C
17,COC(=O)c1ccccc1NC(=O)Cl,80 to 82 °C
18,CN(O)C(=O)C=Cc1cccc(Oc2ccccc2)c1,124 to 125 °C
19,COC1=C(OC)C(=O)c2cc(NC(C)=O)ccc2C1=O,226 to 228 °C
20,O=C=Nc1c(Br)cccc1Br,68 to 70 °C
21,CCOC(=O)COc1cccc(Br)c1CC(=O)O,181 to 183 °C
22,CCN(CC)c1nc(C#N)c(C#N)nc1Cc1ccccc1,73 to 74 °C
23,CC(C(=O)O)c1ccc(N(C)c2nccs2)cc1 (stereo not drawn),121 to 123 °C
24,O=C(O)c1cc(C(=O)O)cc(P(=O)(c2ccccc2)c2ccccc2)c1,283 to 286 °C
25,CS(=O)(=O)Nc1cc(F)c(Cl)cc1I,123 to 124 °C
